US20180318285A1, “METHODS FOR TREATMENT OF AUTISM SPECTRUM DISORDERS” (PRESIDENT AND FELLOWS OF HARVARD COLLEGE, priority 2015, published 2018)
Read-outs that look alike come from different tables or passages of the source.

What was measured:
[1] = cited from earlier work
[2] = test system: MeCP2 hemizygous male mice; experiment: In vivo topotecan treatment by intracerebroventricular osmotic pump: survival and behavior score; design: species or system mouse; settings: 25 μM topotecan in 28-day osmotic pump to right lateral ventricle, 8 week old mice, N=7-8
Experimental: MeCP2 hemizygous male mice at 8 weeks of age (Jackson Labs) were separated into two equal groups based weight. Using standard stereotaxic techniques, cannula (Alzet, Brain Infusion Kit 3) were guided to the right lateral ventricle (from bregma; A/P 1 mm, LV 1 mm) and connected to an osmotic pump (Alzet, 1004, 28-day release) that was implanted subcutaneously. The osmotic pumps had been previously loaded with either vehicle (50 mM tartaric acid) or 25 μM topotecan and primed at 37° C. for approximately 2 days prior to implantation. All mice survived surgery and the following postoperative day. Survival monitoring began on postoperative day 2 and behavioral scoring began on postoperative day 4. MeCP2 behavior was scored as previously reported by Guy et al. Science 2005. Briefly, 6 behavioral domains are monitored to capture the progression of the MeCP2 phenotype: locomotor activity, gait, hindlimb clasp, tremor, breathing, and overall condition. Each behavioral domain is scored as 0 (absence), 1 (mild to moderate), or 2 (severe), and summed to give the total behavioral score. Survival statistics: p=0.09; Mantel-Cox. Behavioral statistics: * p<0.05; 2-way ANOVA, Fisher's LSD. N=7-8.

[3] = test system: MeCP2 knockdown primary cortical neurons; experiment: Ribosomal RNA (Bioanalyzer 18S/28S) and total RNA content of MeCP2 knockdown neurons treated with topotecan; type: cell-based, mouse; settings: 50 nM topotecan
[4] = test system: MeCP2-repressed (MR) long genes in MeCP2 knockdown primary cortical neurons; experiment: Nanostring nCounter expression of MeCP2-repressed long genes in MeCP2 shRNA knockdown primary cortical neurons treated with topotecan; type: cell-based, mouse
Experimental: Primary cortical neurons were prepared from E16.5 mouse embryos and cultured as described by Kim et al. For lentiviral-mediated shRNA knockdown, virus was prepared as described in Tiscornia et al.^48 using the MeCP2 shRNA and control shRNA plasmids previously validated in Zhou et al.^49. Virus was concentrated and titrated using the GFP signal expressed from IRES GFP in the virus. After one day in vitro (DIV), cells were infected with lentivirus (knockdown or control) at an MOI of ˜5, such that >90% of cells were infected. […] RNA samples were processed and analyzed using the Nanostring nCounter assay as described above, with the exception that 6 control genes were used for normalization. […]
For non-amplification-based gene expression analysis, Nanostring nCounter reporter CodeSets were designed to detect candidate MeCP2-repressed genes in 250 ng of total RNA extracted from MeCP2 KO and R306C mice. […] Briefly, total RNA was incubated at 65° C. with reporter and capture probes in hybridization buffer overnight, and captured probes were purified and analyzed on the nCounter Digital Analyzer. […] Significant differences between wild-type and MeCP2 KO or MeCP2 R306C samples (p<0.01) were also detected by paired two-tailed t-test comparing the paired mean values for each gene (averaged across samples within each genotype) between genotypes

Structure (SMILES)	doxorubicin concentrations in the brain ([1]; injection of the drug alone or the uncoated nanoparticle)	doxorubicin concentrations in the brain ([1]; nanoparticles overcoated with polysorbate 80, intravenous injection of 5 mg/kg)	Behavioral statistics, p (2-way ANOVA, Fisher's LSD), total behavioral score, topotecan versus vehicle [2]	Survival statistics, p (Mantel-Cox), topotecan versus vehicle [2]	effect on decreased ribosomal RNA content of neurons lacking MeCP2 [3]	concentration of topotecan that most effectively reverses overexpression of long genes ([4]; MeCP2 knockdown cortical neurons) [nM]	reversal of long gene misregulation (up-regulation of long genes after MeCP2 knockdown) ([4]; cultured cortical neurons, MeCP2 RNAi knockdown, topotecan from DIV 4 to DIV 10)
COc1cccc2c1C(=O)c1c(O)c3c(c(O)c1C2=O)C[C@@](O)(C(=O)CO)C[C@@H]3O[C@H]1C[C@H](N)[C@H](O)[C@H](C)O1 [doxorubicin]	no detectable increase	up to 6 μg/g					
CC[C@@]1(O)C(=O)OCc2c1cc1n(c2=O)Cc2cc3c(CN(C)C)c(O)ccc3nc2-1 [topotecan, Topotecan]			< 0.05	0.09	partially reverses the decreased ribosomal RNA content	50	dose-dependent reversal of long gene misregulation
